In article PMC9962029, “Inhibition of Hepatitis B Virus (HBV) by Tachyplesin, a Marine Antimicrobial Cell-Penetrating Peptide” (Pharmaceutics, 2023):
Residues, ends and D or L forms follow the SMILES beside them.

How the values were obtained:
Huh7 cells = test: MTT cytotoxicity assay in Huh7 cells; format: cell-based, human; details: 48 h, up to 12 µM Tpl, three independent experiments
Method: (§1) MTT assay was used to identify the non-cytotoxic concentrations of Tpl. Cell viability was measured using MTT (3-(4,5_dimethylthaizol-2-yl)-2,5-diphenyltetrazolium bromide) assay. Approximately 10,000 cells were seeded per well in 96-well plates and kept overnight at 37 °C and 5% CO2 to achieve more than 80% confluency. Thereafter, cells were treated with various concentrations of Tpl for 48 h. After 48 h, media was removed, and cells were washed with PBS. MTT reagent was added at a final concentration of 1 mg/mL and kept for 4 h at 37 °C and 5% CO2. Thereafter, 100 µL of DMSO was added to dissolve the formazan crystals formed, and absorbance was determined at a wavelength of 570 nm with a background wavelength of 630 nm (Multiskan GO microplate spectrophotometer, Thermo Scientific, Waltham, MA, USA).

HepG2 cells = test: MTT cytotoxicity assay in HepG2 cells; format: cell-based, human; details: 48 h, up to 12 µM Tpl, three independent experiments
Method: as §1

CC[C@H](C)[C@@H]1NC(=O)CNC(=O)[C@H](CCCNC(=N)N)NC(=O)[C@H](Cc2ccc(O)cc2)NC(=O)[C@@H]2CSSC[C@H](NC1=O)C(=O)N[C@@H](Cc1ccc(O)cc1)C(=O)N[C@@H](CCCNC(=N)N)C(=O)N[C@@H](CCCNC(=N)N)C(=O)N[C@H](C(=O)N[C@@H](CCCNC(=N)N)C(=O)NCC(=O)N[C@@H](CCCCN)C(N)=O)CSSC[C@H](NC(=O)[C@H](Cc1c[nH]c3ccccc13)NC(=O)[C@@H](N)CCCCN)C(=O)N[C@@H](Cc1ccccc1)C(=O)N[C@@H](CCCNC(=N)N)C(=O)N[C@@H](C(C)C)C(=O)N2 [Tpl] (HELM PEPTIDE1{K.W.C.F.R.V.C.Y.R.G.I.C.Y.R.R.C.R.G.K.[am]}$PEPTIDE1,PEPTIDE1,3:R3-16:R3|PEPTIDE1,PEPTIDE1,7:R3-12:R3$$$V2.0)
Cell viability (Huh7 cells): more than 85%
Cell viability (HepG2 cells): more than 85%
